Experimental data published in patent US9546157B2, “Asymmetric piperidinyl-substituted ureas as medicines” (Helsinn Healthcare SA, priority 2014, dated 2017).

How the values were obtained:
[1] = Metabolic Stability (M = Mouse); type: in vitro ADME
[2] = Metabolic Stability (H = Human); type: in vitro ADME
GHSR1a [3] = biological target: T1, GHSR1a (Homo sapiens, UniProt Q92847); assay: Calcium FLIPR assay, GHSR-1a agonism; type: cell-based; parameters: Emax: unit not given here; details: HEK293/GHSR1a cells
T1 construct: expressed in transfected cells; host or cells: HEK293
T1 sequence (Q92847 whole entry): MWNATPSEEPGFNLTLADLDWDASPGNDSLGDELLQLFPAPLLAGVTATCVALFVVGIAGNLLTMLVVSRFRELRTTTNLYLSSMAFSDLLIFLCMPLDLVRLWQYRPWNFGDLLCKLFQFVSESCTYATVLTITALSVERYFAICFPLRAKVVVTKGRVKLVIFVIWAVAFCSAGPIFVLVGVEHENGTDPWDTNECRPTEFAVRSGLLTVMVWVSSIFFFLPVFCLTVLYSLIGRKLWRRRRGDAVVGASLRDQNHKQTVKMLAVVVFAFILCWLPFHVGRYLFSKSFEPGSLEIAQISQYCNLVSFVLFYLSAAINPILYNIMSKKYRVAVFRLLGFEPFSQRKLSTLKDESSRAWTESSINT
How it was run: (§1)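 HEK293 cells expressing GHSR1a, seeded 24 hr earlier and loaded with calcium dye for 30-60 min at room temperature or 37° C, were read by FLIPR fluorescence. Agonism: compound added at t=20 sec, calcium followed 2 minutes. Antagonism: compound plus ghrelin (10 nM) at t=20 sec; potency from reduction of ghrelin response.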

GHSR1a [4] = biological target: T1, GHSR1a; assay: Calcium FLIPR assay, GHSR-1a antagonism (reduction of ghrelin response); type: cell-based; details: HEK293/GHSR1a cells, ghrelin 10 nM
How it was run: as §1

Compound	Metabolic Stability M [1]	Metabolic Stability H [2]	EC50 (GHSR1a [3])	IC50 (GHSR1a [4])	Emax (GHSR1a [3])
CC(NC(=O)N(C)C1CCN(C)CC1)c1ccc(CO)c(Cl)c1Cl (stereo not drawn) [Compound H0633, 3-(1-(2,3-dichloro-4-(hydroxymethyl)phenyl)ethyl)-1-methyl-1-(1-methylpiperidin-4-yl)urea]	High H High M	High H High M	0.015 µM	0.003 µM	
CC(NC(=O)N(C)C1CCN(C)CC1)c1ccc(-c2cncs2)c2ccccc12 (stereo not drawn) [Compound H0597, 1-methyl-1-(1-methylpiperidin-4-yl)-3-(1-(4-(thiazol-5-yl)naphthalen-1-yl)ethyl)urea]	Poor H Poor M	Poor H Poor M	> 30 µM	0.024 µM	
CC(NC(=O)N(C)C1CCN(C)CC1)c1ccc(-c2cncc(C3=CCCC3)c2)c(Cl)c1Cl (stereo not drawn) [Compound H0705, 3-(1-(2,3-dichloro-4-(5-(cyclopent-1-en-1-yl)pyridin-3-yl)phenyl)ethyl)-1-methyl-1-(1-methylpiperidin-4-yl)urea]	High H High M	High H High M	> 30 µM	0.053 µM	
CC(NC(=O)N(C)C1CCN(C)CC1)c1ccc(-c2cncc(-c3cncs3)c2)c(Cl)c1Cl (stereo not drawn) [Compound H0716, 3-(1-(2,3-dichloro-4-(5-(thiazol-5-yl)pyridin-3-yl)phenyl)ethyl)-1-methyl-1-(1-methylpiperidin-4-yl)urea]	Medium	Low	> 30 µM	0.015 µM	
C[C@H](NC(=O)N(C)C1CCN(C)C1)c1ccc(-c2cncc(F)n2)c(Cl)c1Cl (stereo partly drawn) [Compound H0872, 3-((S)-1-(2,3-dichloro-4-(6-fluoropyrazin-2-yl)phenyl)ethyl)-1-methyl-1-(1-methylpyrrolidin-3-yl)urea]	medium	High	> 30 µM	0.006 µM	
CC(NC(=O)N(Cc1ccc(CO)cc1)C1CCN(C)CC1)c1ccc(-c2cccnc2)c(Cl)c1Cl (stereo not drawn) [Compound H0546, 3-(1-(2,3-dichloro-4-(pyridin-3-yl)phenyl)ethyl)-1-(4-(hydroxymethyl)benzyl)-1-(1-methylpiperidin-4-yl)urea]	Medium H Medium M	Medium H Medium M	> 30 µM	0.008 µM	
C[C@H](NC(=O)N(C)[C@@H]1CCN(C)CC1(C)C)c1ccc(-c2cnccn2)c(Cl)c1Cl [Compound H0890, 3-((S)-1-(2,3-dichloro-4-(pyrazin-2-yl)phenyl)ethyl)-1-methyl-1-((R)-1,3,3-trimethylpiperidin-4-yl)urea]	High H High M	High H High M	> 30 µM	0.0016 µM	
CN1CCC(N(C)C(=O)NC(c2ccc(-c3cncc(F)n3)c(Cl)c2Cl)C(F)(F)F)CC1 (stereo not drawn) [Compound H0908, 3-(1-(2,3-dichloro-4-(6-fluoropyrazin-2-yl)phenyl)-2,2,2-trifluoroethyl)-1-methyl-1-(1-methylpiperidin-4-yl)urea]	High	Medium	> 30 µM	0.008 µM	
CC(NC(=O)N(C)C1CCN(C)CC1C)c1ccc(-c2cn[nH]c2)c(Cl)c1Cl (stereo not drawn) [Compound H0528, 3-(1-(2,3-dichloro-4-(1H-pyrazol-4-yl)phenyl)ethyl)-1-(1,3-dimethylpiperidin-4-yl)-1-methylurea]	Medium H Medium M	Medium H Medium M	> 30 µM	0.034 µM	
CCC(NC(=O)N(C)C1CCN(C)C1)c1ccc(-c2cnccn2)c(Cl)c1Cl (stereo not drawn) [Compound H0857, 3-(1-(2,3-dichloro-4-(pyrazin-2-yl)phenyl)propyl)-1-methyl-1-(1-methylpyrrolidin-3-yl)urea]	Low	Medium	> 30 µM	0.01 µM	
CC(O)c1ccc(-c2ccc(C(C)NC(=O)N(C)C3CCN(C)CC3)c(Cl)c2Cl)s1 (stereo not drawn) [Compound H0656, 3-(1-(2,3-dichloro-4-(5-(1-hydroxyethyl)thiophen-2-yl)phenyl)ethyl)-1-methyl-1-(1-methylpiperidin-4-yl)urea]	Medium H Medium M	Medium H Medium M	0.015 µM	0.007 µM	1350
COc1ccc(-c2ccc(C(C)NC(=O)N(C)C3CCN(C)CC3)c(Cl)c2Cl)cc1 (stereo not drawn) [Compound H0508, 3-(1-(2,3-dichloro-4′-methoxy-[1,1′-biphenyl]-4-yl)ethyl)-1-methyl-1-(1-methylpiperidin-4-yl)urea]	High	Medium	> 30 µM	0.076 µM	
CC(NC(=O)N(C)C1CCN(C)CC1)c1ccc(CC#N)c(Cl)c1Cl (stereo not drawn) [Compound H0630, 3-(1-(2,3-dichloro-4-(cyanomethyl)phenyl)ethyl)-1-methyl-1-(1-methylpiperidin-4-yl)urea]	High H High M	High H High M	0.009 µM	0.003 µM	4714
CC(NC(=O)N(C)C1CCN(C)CC1)c1ccc(-c2ccsc2)c2ccccc12 (stereo not drawn) [Compound H0574, 1-methyl-1-(1-methylpiperidin-4-yl)-3-(1-(4-(thiophen-3-yl)naphthalen-1-yl)ethyl)urea]	Medium H Medium M	Medium H Medium M	0.081 µM	0.067 µM	2489
CCC(NC(=O)N(C)[C@@H]1CCN(C)CC1(C)C)c1ccc(-c2cnccn2)c(Cl)c1Cl (stereo partly drawn) [Compound H0858, 3-(1-(2,3-dichloro-4-(pyrazin-2-yl)phenyl)propyl)-1-methyl-1-((R)-1,3,3-trimethylpiperidin-4-yl)urea]	Medium H Medium M	Medium H Medium M	> 30 µM	0.008 µM	
CC(=O)C#Cc1ccc(C(C)NC(=O)N(C)C2CCN(C)CC2)c(Cl)c1Cl (stereo not drawn) [Compound H0701, 3-(1-(2,3-dichloro-4-(3-oxobut-1-yn-1-yl)phenyl)ethyl)-1-methyl-1-(1-methylpiperidin-4-yl)urea]	Low H Low M	Low H Low M	> 30 µM	0.02 µM	
CC(NC(=O)N(C)C1CCN(C)CC1)c1ccc(-c2cccc(C#N)c2)c(Cl)c1Cl (stereo not drawn) [Compound H0610, 3-(1-(2,3-dichloro-3′-cyano-[1,1′-biphenyl]-4-yl)ethyl)-1-methyl-1-(1-methylpiperidin-4-yl)urea]	Medium H Medium M	Medium H Medium M	> 30 µM	0.101 µM	
CC(NC(=O)N(C)C1CCN(C)CC1)c1ccc(-n2ccnn2)c(Cl)c1Cl (stereo not drawn) [Compound H0565, 3-(1-(2,3-dichloro-4-(1H-1,2,3-triazol-1-yl)phenyl)ethyl)-1-methyl-1-(1-methylpiperidin-4-yl)urea]	High H High M	High H High M	0.03 µM	0.028 µM	
CC(NC(=O)N(C)C1CCN(C)CC1)c1ccc(-c2cnn(C)c2)c(Cl)c1Cl (stereo not drawn) [Compound H0501, 3-(1-(2,3-dichloro-4-(1-methyl-1H-pyrazol-4-yl)phenyl)ethyl)-1-methyl-1-(1-methylpiperidin-4-yl)urea]	High H High M	High H High M	0.022 µM	0.013 µM	
CN1CCC(N(C)C(=O)NC(CC2CC2)c2ccc(-c3cncc(N)c3)c(Cl)c2Cl)CC1 (stereo not drawn) [Compound H0721, 3-(1-(4-(5-aminopyridin-3-yl)-2,3-dichlorophenyl)-2-cyclopropylethyl)-1-methyl-1-(1-methylpiperidin-4-yl)urea]	High	Medium	> 30 µM	0.02 µM	
CC(NC(=O)N(C)C1CCN(C)CC1)c1ccc(-c2cccs2)c2ccccc12 (stereo not drawn) [Compound H0575, 1-methyl-1-(1-methylpiperidin-4-yl)-3-(1-(4-(thiophen-2-yl)naphthalen-1-yl)ethyl)urea]	Medium H Medium M	Medium H Medium M	0.028 µM	0.032 µM	3533
CC(NC(=O)N(C)C1CCN(C)CC1)c1ccc(-c2cocn2)c(Cl)c1Cl (stereo not drawn) [Compound H0569, 3-(1-(2,3-dichloro-4-(oxazol-4-yl)phenyl)ethyl)-1-methyl-1-(1-methylpiperidin-4-yl)urea]	Medium H Medium M	Medium H Medium M	> 30 µM	0.087 µM	
CC(NC(=O)N(O)C1CCN(C)CC1)c1ccc(-c2cccs2)c(Cl)c1Cl (stereo not drawn) [Compound H0627, 3-(1-(2,3-dichloro-4-(thiophen-2-yl)phenyl)ethyl)-1-hydroxy-1-(1-methylpiperidin-4-yl)urea]	High H High M	High H High M	0.001 µM	0.004 µM	5289
CC(NC(=O)N(C)C1CCN(C)CC1)c1ccc(-c2cscn2)c(Cl)c1Cl (stereo not drawn) [Compound H0568, 3-(1-(2,3-dichloro-4-(thiazol-4-yl)phenyl)ethyl)-1-methyl-1-(1-methylpiperidin-4-yl)urea]	High H High M	High H High M	0.004 µM	0.009 µM	
CC(NC(=O)N(C)C1CCN(C)CC1)c1ccc(I)c(Cl)c1Cl (stereo not drawn) [Compound H0519, 3-(1-(2,3-dichloro-4-iodophenyl)ethyl)-1-methyl-1-(1-methylpiperidin-4-yl)urea]	Medium H Medium M	Medium H Medium M	0.006 µM	0.003 µM	
